Measured values from US10336792B2, “Antimicrobial peptide dendrimers” (priority 2014, dated 2019).
In brackets after ≈: the same amount, converted by molar mass. Positions of bridges follow the written chain, without caps; N, C: chain ends. Residues, ends and D or L forms follow the SMILES beside them. Groups on a side chain read outwards from the residue. Chains are numbered I, II in the order given. *: point of attachment. LeuLys(Leu) = CC(C)C[C@H](N)C(=O)NCCCC[C@H](NC(=O)[C@@H](N)CC(C)C)C(=O)*

Each compound was assayed on Pseudomonas aeruginosa (strain PA01) (assay: microbe, parasite or virus in culture). Conditions: strain.
Type: cell-based
Experimental: Antimicrobial activity was assayed against Bacillus subtilis (strain BR151), Escherichia coli (strain DH5α) and Pseudomonas aeruginosa (strain PA01). Microdilution broth method was used to determine the minimal inhibitory concentration (MIC). A colony of bacteria was grown in LB-medium overnight at 37° C. The concentration was quantified by measuring absorbance at 600 nm and diluted to OD600=0.1 (1×10^8 CFU/mL). The samples were prepared as stock solutions of 1 mg mL^−1 in H2O and diluted serially by ⅔ in nutrient LB in a 96-well microtiterplate (Cornstar, polypropylene, untreated). The sample solutions (50 μL) were mixed with the diluted bacterial suspension with an OD600 nm of 0.001 (50 μL). […] The plates were incubated at 37° C. until satisfactory growth (18-24 h). For each test, two columns of the plate were kept for sterility control (SC, broth only) and growth control (GC, broth with bacterial inoculums, no antibiotics). 10 μL of a solution of MTT (0.1% in H2O) was added to each well. The minimal inhibitory concentration (MIC) was defined as the lowest concentration of the antimicrobial substance (peptide dendrimer) that inhibited visible growth of the tested bacteria (yellow) with the unaided eye. For microbiological study the linear peptide LysTyrLysLysAlaLeuLysLysLeuAlaLysLeuLeu (SEQ ID No. 1) was used as reference.
All peptides were tested for their activity against P. aeruginosa PAO1 in a broth dilution assay (Wiegand, I. et al., 2008, Nat. Protoc., 3, 163-75; Clinical and Laboratory Standards Institute document M7-A7 7th Edition) to determine the MIC (minimal inhibitory concentration) values. The stock solutions of the peptide dendrimers were diluted serially by ⅔ in nutrient LB in 96-well microtiter plates. Bacteria were grown in nutrient LB overnight at 37° C. After dilution the bacteria were added to the peptides and incubated overnight (18-24 h) at 37° C. […] The position of the amino acids between the branching units seems to be optimal if the hydrophobic amino acid is the first counting from C-terminus and the charged one is on the second position. Introducing Ala as additional hydrophobic amino acid reduces activity (MSt-120). […] Also assembling charged or hydrophobic sections between the branching units leads to loss of activity whereas altering L-amino acids to D-amino acids maintains activity leading to the hypothesis that the mechanism of action should not be receptor mediated.

| MIC P. aeruginosa PAO1 | Structure (SMILES) |
| --- | --- |
| 12 µg/mL (≈ 4.47 µM) | CC(C)C[C@H](NC(=O)[C@H](CCCCNC(=O)[C@H](CCCCN)NC(=O)[C@H](CCCCNC(=O)[C@@H](N)CC(C)C)NC(=O)[C@@H](N)CC(C)C)NC(=O)[C@H](CCCCN)NC(=O)[C@H](CCCCNC(=O)[C@@H](N)CC(C)C)NC(=O)[C@@H](N)CC(C)C)C(=O)NCCCC[C@H](NC(=O)[C@H](CC(C)C)NC(=O)[C@H](CCCCNC(=O)[C@H](CCCCN)NC(=O)[C@H](CCCCNC(=O)[C@@H](N)CC(C)C)NC(=O)[C@@H](N)CC(C)C)NC(=O)[C@H](CCCCN)NC(=O)[C@H](CCCCNC(=O)[C@@H](N)CC(C)C)NC(=O)[C@@H](N)CC(C)C)C(=O)N[C@@H](CCCCN)C(N)=O [MSt-147, (L)8(KK)4(KL)2(KK)] (I: H-LK(Leu)KK([Lys-LeuLys(Leu)])LKK-NH2 / II: H-LK(Leu)KK([Lys-LeuLys(Leu)])L; amide I:6-II:C) |
| 11 µg/mL (≈ 1.77 µM) | CC(C)C[C@H](NC(=O)[C@H](CC(C)C)NC(=O)[C@H](CCCCN)NC(=O)[C@H](CCCCNC(=O)[C@H](CC(C)C)NC(=O)[C@H](CC(C)C)NC(=O)[C@H](CCCCN)NC(=O)[C@H](CCCCNC(=O)[C@H](CC(C)C)NC(=O)[C@H](CC(C)C)NC(=O)[C@H](CCCCN)NC(=O)[C@H](CCCCNC(=O)[C@H](CC(C)C)NC(=O)[C@H](CC(C)C)NC(=O)[C@@H](N)CCCCN)NC(=O)[C@H](CC(C)C)NC(=O)[C@H](CC(C)C)NC(=O)[C@@H](N)CCCCN)NC(=O)[C@H](CC(C)C)NC(=O)[C@H](CC(C)C)NC(=O)[C@H](CCCCN)NC(=O)[C@H](CCCCNC(=O)[C@H](CC(C)C)NC(=O)[C@H](CC(C)C)NC(=O)[C@@H](N)CCCCN)NC(=O)[C@H](CC(C)C)NC(=O)[C@H](CC(C)C)NC(=O)[C@@H](N)CCCCN)NC(=O)[C@H](CC(C)C)NC(=O)[C@H](CC(C)C)NC(=O)[C@H](CCCCN)NC(=O)[C@H](CCCCNC(=O)[C@H](CC(C)C)NC(=O)[C@H](CC(C)C)NC(=O)[C@H](CCCCN)NC(=O)[C@H](CCCCNC(=O)[C@H](CC(C)C)NC(=O)[C@H](CC(C)C)NC(=O)[C@@H](N)CCCCN)NC(=O)[C@H](CC(C)C)NC(=O)[C@H](CC(C)C)NC(=O)[C@@H](N)CCCCN)NC(=O)[C@H](CC(C)C)NC(=O)[C@H](CC(C)C)NC(=O)[C@H](CCCCN)NC(=O)[C@H](CCCCNC(=O)[C@H](CC(C)C)NC(=O)[C@H](CC(C)C)NC(=O)[C@@H](N)CCCCN)NC(=O)[C@H](CC(C)C)NC(=O)[C@H](CC(C)C)NC(=O)[C@@H](N)CCCCN)C(N)=O [MIS-06, (KLL)8(KKLL)4(KKLL)2(KKLL)] (I: H-KLLK([Leu-Leu-Lys])KLLKKLLKKLL-NH2 / II: H-KLLK([Leu-Leu-Lys])KLLKKLL / III: H-KLLK([Leu-Leu-Lys])KLL / IV: H-KLLK([Leu-Leu-Lys])KLL; amide I:8-IV:C, I:12-II:C, II:8-III:C) |
| 5 µg/mL (≈ 2.37 µM) | CC(C)C[C@H](NC(=O)[C@H](CCCNC(=N)N)NC(=O)[C@H](CCCCNC(=O)[C@H](CC(C)C)NC(=O)[C@@H](N)CCCNC(=N)N)NC(=O)[C@H](CC(C)C)NC(=O)[C@@H](N)CCCNC(=N)N)C(=O)N[C@@H](CSSC[C@H](NC(=O)[C@H](CC(C)C)NC(=O)[C@H](CCCNC(=N)N)NC(=O)[C@H](CCCCNC(=O)[C@H](CC(C)C)NC(=O)[C@@H](N)CCCNC(=N)N)NC(=O)[C@H](CC(C)C)NC(=O)[C@@H](N)CCCNC(=N)N)C(N)=O)C(N)=O [CCS-19 dimer, ((RL)2KRLC)2] (I: H-RLK([Leu-Arg])RLC-NH2 / II: H-RLK([Leu-Arg])RLC-NH2; disulfide I:6-II:6; N-terminus assumed) |
| 15 µg/mL (≈ 7.72 µM) | CC(C)C[C@H](NC(=O)[C@H](CCCCN)NC(=O)[C@H](CCCCNC(=O)[C@H](CC(C)C)NC(=O)[C@@H](N)CCCCN)NC(=O)[C@H](CC(C)C)NC(=O)[C@@H](N)CCCCN)C(=O)N[C@@H](CSSC[C@H](NC(=O)[C@H](CC(C)C)NC(=O)[C@H](CCCCN)NC(=O)[C@H](CCCCNC(=O)[C@H](CC(C)C)NC(=O)[C@@H](N)CCCCN)NC(=O)[C@H](CC(C)C)NC(=O)[C@@H](N)CCCCN)C(N)=O)C(N)=O [CCS-5 dimer, ((KL)2KKLC)2] (I: H-KLK([Leu-Lys])KLC-NH2 / II: H-KLK([Leu-Lys])KLC-NH2; disulfide I:6-II:6) |
| 4 µg/mL (≈ 0.642 µM) | CC(C)C[C@H](NC(=O)[C@H](CCCCN)NC(=O)[C@H](CC(C)C)NC(=O)[C@H](CCCCNC(=O)[C@H](CC(C)C)NC(=O)[C@H](CCCCN)NC(=O)[C@H](CC(C)C)NC(=O)[C@H](CCCCNC(=O)[C@H](CC(C)C)NC(=O)[C@H](CCCCN)NC(=O)[C@H](CC(C)C)NC(=O)[C@H](CCCCNC(=O)[C@H](CC(C)C)NC(=O)[C@H](CCCCN)NC(=O)[C@@H](N)CC(C)C)NC(=O)[C@H](CC(C)C)NC(=O)[C@H](CCCCN)NC(=O)[C@@H](N)CC(C)C)NC(=O)[C@H](CC(C)C)NC(=O)[C@H](CCCCN)NC(=O)[C@H](CC(C)C)NC(=O)[C@H](CCCCNC(=O)[C@H](CC(C)C)NC(=O)[C@H](CCCCN)NC(=O)[C@@H](N)CC(C)C)NC(=O)[C@H](CC(C)C)NC(=O)[C@H](CCCCN)NC(=O)[C@@H](N)CC(C)C)NC(=O)[C@H](CC(C)C)NC(=O)[C@H](CCCCN)NC(=O)[C@H](CC(C)C)NC(=O)[C@H](CCCCNC(=O)[C@H](CC(C)C)NC(=O)[C@H](CCCCN)NC(=O)[C@H](CC(C)C)NC(=O)[C@H](CCCCNC(=O)[C@H](CC(C)C)NC(=O)[C@H](CCCCN)NC(=O)[C@@H](N)CC(C)C)NC(=O)[C@H](CC(C)C)NC(=O)[C@H](CCCCN)NC(=O)[C@@H](N)CC(C)C)NC(=O)[C@H](CC(C)C)NC(=O)[C@H](CCCCN)NC(=O)[C@H](CC(C)C)NC(=O)[C@H](CCCCNC(=O)[C@H](CC(C)C)NC(=O)[C@H](CCCCN)NC(=O)[C@@H](N)CC(C)C)NC(=O)[C@H](CC(C)C)NC(=O)[C@H](CCCCN)NC(=O)[C@@H](N)CC(C)C)C(N)=O [MIS-08, (LKL)8(KLKL)4(KLKL)2(KLKL)] (I: H-LKLK([Leu-Lys-Leu])LKLKLKLKLKL-NH2 / II: H-LKLK([Leu-Lys-Leu])LKLKLKL / III: H-LKLK([Leu-Lys-Leu])LKL / IV: H-LKLK([Leu-Lys-Leu])LKL; amide I:8-IV:C, I:12-II:C, II:8-III:C) |
| 12 µg/mL (≈ 1.8 µM) | CC(C)C[C@H](NC(=O)[C@H](CCCNC(=N)N)NC(=O)[C@H](CCCCNC(=O)[C@H](CC(C)C)NC(=O)[C@H](CCCNC(=N)N)NC(=O)[C@H](CCCCNC(=O)[C@H](CC(C)C)NC(=O)[C@H](CCCNC(=N)N)NC(=O)CSC[C@H](NC(=O)[C@H](CC(C)C)NC(=O)[C@H](CCCNC(=N)N)NC(=O)[C@H](CCCCNC(=O)[C@H](CC(C)C)NC(=O)[C@@H](N)CCCNC(=N)N)NC(=O)[C@H](CC(C)C)NC(=O)[C@@H](N)CCCNC(=N)N)C(N)=O)NC(=O)[C@H](CC(C)C)NC(=O)[C@H](CCCNC(=N)N)NC(=O)CSC[C@H](NC(=O)[C@H](CC(C)C)NC(=O)[C@H](CCCNC(=N)N)NC(=O)[C@H](CCCCNC(=O)[C@H](CC(C)C)NC(=O)[C@@H](N)CCCNC(=N)N)NC(=O)[C@H](CC(C)C)NC(=O)[C@@H](N)CCCNC(=N)N)C(N)=O)NC(=O)[C@H](CC(C)C)NC(=O)[C@H](CCCNC(=N)N)NC(=O)[C@H](CCCCNC(=O)[C@H](CC(C)C)NC(=O)[C@H](CCCNC(=N)N)NC(=O)CSC[C@H](NC(=O)[C@H](CC(C)C)NC(=O)[C@H](CCCNC(=N)N)NC(=O)[C@H](CCCCNC(=O)[C@H](CC(C)C)NC(=O)[C@@H](N)CCCNC(=N)N)NC(=O)[C@H](CC(C)C)NC(=O)[C@@H](N)CCCNC(=N)N)C(N)=O)NC(=O)[C@H](CC(C)C)NC(=O)[C@H](CCCNC(=N)N)NC(=O)CSC[C@H](NC(=O)[C@H](CC(C)C)NC(=O)[C@H](CCCNC(=N)N)NC(=O)[C@H](CCCCNC(=O)[C@H](CC(C)C)NC(=O)[C@@H](N)CCCNC(=N)N)NC(=O)[C@H](CC(C)C)NC(=O)[C@@H](N)CCCNC(=N)N)C(N)=O)C(N)=O [CCS-27, (RL)8(KRLCxRL)4(KRL)2KRL] |
